Patent US20090317501A1, “Pinus Pinea Plant Extracts For Treating Osteoporosis and the Extraction Process Thereof” (priority 2006, published 2009)

Test system: osteoclastic bone resorption
Experiment: Bone resorption screening, CTX release by osteoclasts on bovine bone slices
Assay type: cell-based, human
Conditions: positive control; DMSO negative control set to 100%; 5 days incubation
From the text: Studies have determined that osteoclasts are largely derived from CD14 positive monocytes (J. Haemotol, 1999 July; 106(1):167-70). Clonal analysis of haematopoietic cells by surface phenotypes has been used to further identify osteoclast precursor by characterizing osteoclast like cells distinct from other haematopoietic progenitors (Lee et.al; 1992b Muguruma & Lee; 1988). Surface phenotype analysis has shown that human osteoclasts are derived from CD14 monocytes (Massey & Flanagan, 1999). CD 14 marker is strongly expressed on monocytes, the putative osteoclast precursor in peripheral blood and CD14 positive monocytes have been selected for osteoclastogenesis. (Clin. Sci (Lond) 2000, August, 99 (2): 133-40).
The osteoclasts were isolated as CD 14 positive monocytes and were differentiated into osteoclasts for 10-12 days. Hereafter the osteoclasts were lifted by trypsin, counted and seeded on bovine bone slices at a density of 40,000 cells per bone slice. The osteoclasts were seeded on the cone slices for one day before the plant extracts were added. The osteoclasts were hereby allowed to attach and initiate the resorption activity. […]
The bone resorption experiment was ended after 5 days of incubation and the cell viability was measured by the use of the Alamar blue assay as represented in FIG. 3. […]

CO/C1=C\C(C)=C\[C@@H](C)[C@@H](O)[C@@H](C)C/C(C)=C/C=C/[C@H](OC)[C@@H]([C@@H](C)[C@@H](O)[C@H](C)[C@@]2(O)C[C@@H](O)[C@H](C)[C@@H](C(C)C)O2)OC1=O [Bafilomycin]
remaining bone resorption (CTX release) as % of DMSO control: approximately 8%
